According to PMC10969742, “A Phase I Study of the Oral Dual-Acting Pan-PI3K/mTOR Inhibitor Bimiralisib in Patients with Advanced Solid Tumors” (Cancers, 2024):
Read-outs that look alike come from different tables or passages of the source.

Test system: patients with advanced solid tumors
Format: in vivo
Experimental: This was a Phase 1, open-label, multi-center, non-randomized, dose escalation study evaluating DLTs, tolerability, PK, and preliminary efficacy of bimiralisib in the treatment of patients with advanced solid tumors for which no standard curative or life-prolonging therapy is available. This study was conducted in the US (MD Anderson Cancer Center, Houston; Mayo Clinic Rochester; Roswell Park Comprehensive Cancer Center, Buffalo; University Hospitals of Cleveland), Spain (Vall Hebron University Hospital), Switzerland (Basel University Hospital), and UK (University College London Hospitals NHS Trust and Oxford Universities NHS Trust).
The primary objective of the study was to determine the MTD of bimiralisib administered according to three different dosing schedules. Bimiralisib was formulated as 20 mg and 80 mg capsules for oral administration. The first dosing schedule to be evaluated was continuous (once daily) dosing over a 21-day cycle. […] Patients enrolled in the continuous schedule and intermittent schedule A received a single lead-in dose, administered on […] prior to the start of the first 21-day treatment cycle, to characterize single-dose pharmacokinetics. Based on the previous first-in-human trial with bimiralisib, together with the expected toxicity profile of PI3K/mTOR inhibitors, the starting dose (dose-level 1) of bimiralisib in Study PQR309-003 was set at 80 mg daily.
Safety was monitored by physical examination, vital signs, weight, electrocardiogram, ECOG performance status, laboratory evaluations (including glucose monitoring), and patient self-reported mood questionnaires, as well as AEs. All AEs were coded with NCI Common Terminology Criteria for Adverse Events (CTCAE) v4.03 [27]. The MTD was defined as the maximum dose level at which ≤1/6 patients have DLTs. A DLT was defined by the occurrence of grade 3 or 4 AE that is possibly, probably, or definitely related to bimiralisib within the first 21 days of treatment. Bimiralisib treatment was interrupted if patients experienced any DLTs. If the patient derived benefit from the treatment as determined by the investigator, treatment could be resumed at a lower dose in agreement with the study sponsor.
Patients were discontinued from trial if they had evidence of clinical, symptomatic, or radiographic disease progression or relapse, unacceptable drug related AEs, non-compliance to the protocol, voluntary withdrawal, or pregnancy. Treatment compliance was established with patient diaries and records of medication used and dosages administered.
Descriptive statistics were used to present the data. Categorical data were summarized in contingency tables presenting frequencies and percentages. Continuous data were summarized using the number of non-missing values (n), mean, standard deviation (SD), median, Q1, Q3, minimum and maximum values, as appropriate. Data were analyzed using SAS. No tests of significance were planned to compare study treatment groups on baseline data. The efficacy and safety analysis set comprised all patients who receive ≥1 dose of bimiralisib.

Nc1cc(C(F)(F)F)c(-c2nc(N3CCOCC3)nc(N3CCOCC3)n2)cn1 [bimiralisib, 5-(4,6-Dimorpholino-1,3,5-triazin-2-yl)-4-(trifluoromethyl)pyridin-2-amine]
Any TEAE (Continuous (n = 21)): 21 (100) n (%)
Any drug-related AE (Continuous (n = 21)): 21 (100) n (%)
Any drug-related grade ≥ 3 AE (Continuous (n = 21)): 11 (52.4) n (%)
Any drug-related serious AE (Continuous (n = 21)): 2 (10) n (%)
Any grade ≥ 3 TEAE (Continuous (n = 21)): 17 (81) n (%)
Any serious AE (Continuous (n = 21)): 9 (43) n (%)
Common TEAE: ALT elevation (Continuous (n = 21)): 1 (4.76) n (%)
Common TEAE: Abdominal pain (Continuous (n = 21)): 1 (4.76) n (%)
Common TEAE: Anemia (Continuous (n = 21)): 0 (0) n (%)
Common TEAE: Anxiety (Continuous (n = 21)): 5 (23.8) n (%)
Common TEAE: Ascites (Continuous (n = 21)): 0 (0) n (%)
Common TEAE: Asthenia (Continuous (n = 21)): 6 (28.6) n (%)
Common TEAE: Back pain (Continuous (n = 21)): 4 (19.1) n (%)
Common TEAE: Cachexia (Continuous (n = 21)): 4 (19.1) n (%)
Common TEAE: Cough (Continuous (n = 21)): 2 (9.5) n (%)
Common TEAE: Decreased appetite (Continuous (n = 21)): 11 (52.4) n (%)
Common TEAE: Dehydration (Continuous (n = 21)): 6 (28.6) n (%)
Common TEAE: Depression (Continuous (n = 21)): 5 (23.8) n (%)
Common TEAE: Diarrhea (Continuous (n = 21)): 10 (47.6) n (%)
Common TEAE: Disturbance attention (Continuous (n = 21)): 11 (52.4) n (%)
Common TEAE: Dry Mouth (Continuous (n = 21)): 10 (47.6) n (%)
Common TEAE: Dry skin (Continuous (n = 21)): 7 (33.3) n (%)
Common TEAE: Dysgeusia (Continuous (n = 21)): 4 (19.1) n (%)
Common TEAE: Dyspepsia (Continuous (n = 21)): 1 (4.76) n (%)
Common TEAE: Dyspnea (Continuous (n = 21)): 4 (19.1) n (%)
Common TEAE: Fatigue (Continuous (n = 21)): 13 (61.9) n (%)
Common TEAE: Headache (Continuous (n = 21)): 0 (0) n (%)
Common TEAE: Hyperglycemia (Continuous (n = 21)): 16 (76.2) n (%)
Common TEAE: Hyperinsulinemia (Continuous (n = 21)): 7 (33.3) n (%)
Common TEAE: Hyperkalemia (Continuous (n = 21)): 0 (0) n (%)
Common TEAE: Hyperphosphatasemia (Continuous (n = 21)): 1 (4.76) n (%)
Common TEAE: Hypokalemia (Continuous (n = 21)): 6 (28.6) n (%)
Common TEAE: Irritability (Continuous (n = 21)): 0 (0) n (%)
Common TEAE: Malaise (Continuous (n = 21)): 4 (19.1) n (%)
Common TEAE: Mucosal Inflammation (Continuous (n = 21)): 0 (0) n (%)
Common TEAE: Neck pain (Continuous (n = 21)): 0 (0) n (%)
Common TEAE: Pruritus (Continuous (n = 21)): 6 (28.6) n (%)
Common TEAE: Rash (Continuous (n = 21)): 4 (19.1) n (%)
Common TEAE: Tachycardia (Continuous (n = 21)): 4 (19.1) n (%)
Common TEAE: Upper respiratory tract infection (Continuous (n = 21)): 1 (4.76) n (%)
Common TEAE: Vomiting (Continuous (n = 21)): 10 (47.6) n (%)
Common TEAE: Weight decrease (Continuous (n = 21)): 11 (52.4) n (%)
Grade ≥ 3 TEAE: ALT elevation (Continuous (n = 21)): 1 (4.8) n (%)
Grade ≥ 3 TEAE: Dehydration (Continuous (n = 21)): 4 (19) n (%)
Grade ≥ 3 TEAE: Fatigue (Continuous (n = 21)): 7 (33.3) n (%)
Grade ≥ 3 TEAE: Hyperglycemia (Continuous (n = 21)): 6 (28.6) n (%)
Patients discontinuing study due to AE (Continuous (n = 21)): 5 (24.0%) n (%)
Study discontinuation due to AE: Dehydration (Continuous (n = 21)): 2 (9.5%) n (%)
Study discontinuation due to AE: Ejection Fraction decreased (Continuous (n = 21)): 1 (4.8%) n (%)
Study discontinuation due to AE: Fatigue (Continuous (n = 21)): 3 (14.3%) n (%)
Study discontinuation due to AE: Tumor pain (Continuous (n = 21)): 1 (4.8%) n (%)
Treatment-related death (Continuous (n = 21)): 0 (0) n (%)
Common TEAE: Upper respiratory tract infection (Intermittent A, n = 25): 3 (12) n (%)
Study discontinuation due to AE: Urinary Tract Infection (Intermittent A, n = 25): 1 (4.0%) n (%)
Treatment-related death (Intermittent A, n = 25): 0 (0) n (%)
Common TEAE: Upper respiratory tract infection (Intermittent B, n = 24): 1 (4.2) n (%)
Treatment-related death (Intermittent B, n = 24): 0 (0) n (%)
Common TEAE: Upper respiratory tract infection (Total n = 70): 5 (7.1) n (%)
Study discontinuation due to AE: Urinary Tract Infection (Total n = 70): 1 (1.4%) n (%)
Treatment-related death (Total n = 70): 0 (0) n (%)
Patients who died during the study (all patients, 19 patients): 27.1%
Grade > 3 TEAE fatigue, frequency (continuous dosing): 33.3%
Grade > 3 TEAE hyperglycemia, frequency (continuous dosing): 28.6%
Patients experiencing Grade > 3 TEAEs (continuous dosing): 81%
Patients who discontinued due to treatment-related fatigue (continuous dosing): 2 patients
Patients who discontinued the study due to AEs (continuous dosing): 5 patients
Treatment-emergent AE hyperglycemia, frequency (continuous schedule): 76.2%
Dose reduction due to TEAEs (continuous schedule, n = 2): 10%
Dose interruption due to TEAEs (continuous schedule, n = 11): 52%
Discontinued study treatment: AEs (human, in vivo): 12.9%
Grade > 3 TEAE hyperglycemia, frequency (human, in vivo): 12.5%
Patients experiencing one or more TEAEs (human, in vivo): 99%
Patients reporting one or more serious adverse events (SAEs) (human, in vivo): 40%
Patients who discontinued due to treatment-related fatigue (human, in vivo): 1 patients
Patients who discontinued the study due to AEs (human, in vivo): 3 patients
Patients with TEAEs related to the study drug (human, in vivo): 91%
SAEs considered related to study drug (human, in vivo): 6%
Study discontinuation due to AE: Dehydration (human, in vivo): 2 (2.8%) n (%)
Study discontinuation due to AE: Ejection Fraction decreased (human, in vivo): 1 (1.4%) n (%)
Study discontinuation due to AE: Tumor pain (human, in vivo): 1 (1.4%) n (%)
Treatment-emergent AE nausea, frequency (human, in vivo): 56–62.5%
Patients who discontinued due to AEs considered to be treatment-related (in vivo): five
SAEs considered related to study drug, number (in vivo): two
Grade > 3 TEAE fatigue, frequency (intermittent schedule A): 0%
Grade > 3 TEAE hyperglycemia, frequency (intermittent schedule A): 12%
Patients experiencing Grade > 3 TEAEs (intermittent schedule A): 56%
Patients who discontinued the study due to AEs (intermittent schedule A): 1 patients
SAEs considered related to study drug, number (intermittent schedule A): zero
Dose reduction due to TEAEs (intermittent schedule A, n = 0): 0%
Dose interruption due to TEAEs (intermittent schedule A, n = 9): 36%
Grade > 3 TEAE fatigue, frequency (intermittent schedule B): 8.3%
SAEs considered related to study drug, number (intermittent schedule B (diarrhea and hyperglycemia)): two
Dose reduction due to TEAEs (intermittent schedule B, n = 1): 4%
Dose interruption due to TEAEs (intermittent schedule B, n = 9): 38%
Deaths due to disease progression (of 19 deaths during the study): 16 patients
Deaths due to other reasons unrelated to bimiralisib (vessel rupture, sepsis, new small cell carcinoma) (of 19 deaths during the study): 3 patients
